Source: patent US7553506B2, “Herbal compositions for prevention and treatment of rheumatic and inflammatory diseases and method of preparing the same” (Shenzhen Qianrenren Sci. & Tech. Development Co., priority 2004, dated 2009)

Experiments:
[1] = system: Outpatients with active rheumatoid arthritis; test: Clinical study of Anti-Rheumatoid Arthritis Capsule (ARC) versus active control (MTX combination); details: for % of patients with 50% improvement (R50) / number of patients with 50% improvement (R50) / number of patients with 75% improvement (R75) / number of patients with 100% improvement (R100) / % of patients with 75% improvement (R75): 18 patients per group
Protocol: Anti-Rheumatoid Arthritis Capsule (ARC) is a capsule made of the powder form of the herbal composition of the present invention in accordance with the components and method shown in Example 1. To assess the basic efficacy and side effect of ARC, an open, randomized and active controlled clinical trial was carried out.
Outpatients with active rheumatoid arthritis, according to the classification criteria of the American Arthritis College, without other significant medical conditions were recruited. […] Safety and compliance were monitored every 2 weeks with complete outcome evaluation at 4, 8, and 12 weeks.
Thirty-six (36) typical active RA patients were selected and randomly divided into two groups. Observe group, 18 patients, was treated with ARC (4 capsules t.i.d., each capsule is about 0.3 g).
The improvement was denoted as either R50, R75 or R100 reflecting either an improvement to the 50%, 75%, or 100% level in the parameters based on the improvements of signs and symptoms including rest pain assessment, duration of morning stiffness, number of tender joint and the index of tenderness, number of swelling joints and the swelling index, grip strength, joint function, erythrocyte sedimentation rate, C reaction protein, and rheumatoid factor.

[2] = system: Outpatients with active rheumatoid arthritis; test: Clinical study of Anti-Rheumatoid Arthritis Liquor (ARL) versus active control (MTX combination); type: in vivo, human; details: for number of patients with 50% improvement (R50) / number of patients with 75% improvement (R75) / number of patients with 100% improvement (R100) / % of patients with 50% improvement (R50) / % of patients with 75% improvement (R75) / % of patients with 100% improvement (R100): 20 patients per group
Protocol: Outpatients with active rheumatoid arthritis, according to the classification criteria of the American Arthritis College, without other significant medical conditions were recruited. 40 patients were recruited, 7 male and 33 female. Their ages were ranged from 28-67 years old with average of 46.8 years old. The disease duration of the patients ranged from 0.4 to 13 years.
[…] Observe group, 20 patients, was treated with ARL (30 ml/d). It was taken before sleep or equally divided to be taken in the morning and evening.
The outcome measurements for the both groups were divided to signs and symptoms, including: rest pain assessment, duration of morning stiffness, number of tender joint and the index of tenderness, number of swelling joints and the swelling index, grip strength, joint function, erythrocyte sedimentation rate, C reaction protein, and rheumatoid factor. The individual parameter improvement was calculated through the following formula:
The total improvement was used to compare the efficacy between the two groups. In order to accurately reflect the drug efficacy, 50% improvement, 75% improvement, and 100% improvement (R50, R75 and R100) were used as statistical endpoint for efficacy.

rheumatoid arthritis = details: general statement on RA therapy; cited from earlier work
[3] = 12 weeks, listed as active control
[4] = 26 weeks, listed as combination of oral MTX and NSAID
[5] = 52 weeks, listed as combination of oral MTX and NSAID

- patients who complained about stomachalgia ([1]; 12 weeks observation, 18 patients): 3 patients
Structure (SMILES): CN(Cc1cnc2nc(N)nc(N)c2n1)c1ccc(C(=O)N[C@@H](CCC(=O)O)C(=O)O)cc1 [MTX, Methotrexate]
- % of patients with 50% improvement (R50) ([1]; 4 weeks): (11.1) %
- number of patients with 50% improvement (R50) ([1]; 4 weeks): 2
- number of patients with 75% improvement (R75) ([1]; 4 weeks): 0
- number of patients with 100% improvement (R100) ([1]; 4 weeks): 0
- % of patients with 50% improvement (R50) ([1]; 4 weeks, listed as active control): 11.1%
- % of patients with 50% improvement (R50) ([1]; 8 weeks): (11.1) %
- number of patients with 50% improvement (R50) ([1]; 8 weeks): 2
- number of patients with 75% improvement (R75) ([1]; 8 weeks): 0
- number of patients with 100% improvement (R100) ([1]; 8 weeks): 0
- % of patients with 50% improvement (R50) ([1]; 8 weeks, listed as active control): 11.1%
- % of patients with 50% improvement (R50) ([1]; 12 weeks): (55.5) %
- % of patients with 75% improvement (R75) ([1]; 12 weeks): (11.1) %
- number of patients with 50% improvement (R50) ([1]; 12 weeks): 10
- number of patients with 75% improvement (R75) ([1]; 12 weeks): 2
- % of patients with 50% improvement (R50) [1, 3]: 55.5%
- % of patients with 75% improvement (R75) [1, 3]: 11.1%
- time required to reach R50 [2]: 8-12 weeks
- time required to reach R75 [2]: 20-32 weeks
- time required to reach R100 [2]: 52 weeks
- number of patients with 50% improvement (R50) ([2]; 4 weeks): 0
- number of patients with 75% improvement (R75) ([2]; 4 weeks): 0
- number of patients with 100% improvement (R100) ([2]; 4 weeks): 0
- number of patients with 50% improvement (R50) ([2]; 8 weeks): 0
- number of patients with 75% improvement (R75) ([2]; 8 weeks): 0
- number of patients with 100% improvement (R100) ([2]; 8 weeks): 0
- % of patients with 50% improvement (R50) ([2]; 12 weeks): (45) %
- number of patients with 50% improvement (R50) ([2]; 12 weeks): 9
- number of patients with 75% improvement (R75) ([2]; 12 weeks): 0
- number of patients with 100% improvement (R100) ([2]; 12 weeks): 0
- % of patients with 50% improvement (R50) ([2]; 12 weeks, listed as combination of oral MTX and NSAID): 45%
- % of patients with 50% improvement (R50) ([2]; 26 weeks): (40) %
- % of patients with 75% improvement (R75) ([2]; 26 weeks): (50) %
- number of patients with 50% improvement (R50) ([2]; 26 weeks): 8
- number of patients with 75% improvement (R75) ([2]; 26 weeks): 10
- number of patients with 100% improvement (R100) ([2]; 26 weeks): 0
- % of patients with 50% improvement (R50) [2, 4]: 40%
- % of patients with 75% improvement (R75) [2, 4]: 50%
- % of patients with 75% improvement (R75) ([2]; 52 weeks): (75) %
- % of patients with 100% improvement (R100) ([2]; 52 weeks): (25) %
- number of patients with 50% improvement (R50) ([2]; 52 weeks): 0
- number of patients with 75% improvement (R75) ([2]; 52 weeks): 15
- number of patients with 100% improvement (R100) ([2]; 52 weeks): 5
- % of patients with 75% improvement (R75) [2, 5]: 75%
- % of patients with 100% improvement (R100) [2, 5]: 25%
- Time Required for Improvement, R50 ([2]; Table 5, value ± spread): 15.2 ± 5.43 week
- Time Required for Improvement, R75 ([2]; Table 5, value ± spread): 27.7 ± 10.5 week
- Time Required for Improvement, R100 ([2]; Table 5, value ± spread): 47.2 ± 10.7 week
- time usually required to show some clinical effect (rheumatoid arthritis): 12-24 weeks
